Test results: PubChem BioAssay AID1259321 (Sanford-Burnham Center for Chemical Genomics, 2017)
Activity calls are given as the source filed them.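 Rule for the calls: active = half-maximal concentration for changing protein binding to DNA, from the fitted dose curve, below 10 micromolar; inactive = the rest.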

These molecules were tested against Nuclear receptor subfamily 1 group D member 1 (Homo sapiens) (UniProt P20393) (assay: modulators of Rev-erb alpha DNA binding, dose response, biochemical, FITC-DNA, fluorescence polarization (AID 1259321)).
Nuclear receptor subfamily 1 group D member 1 (Homo sapiens), sequence (P20393 whole entry, looked up): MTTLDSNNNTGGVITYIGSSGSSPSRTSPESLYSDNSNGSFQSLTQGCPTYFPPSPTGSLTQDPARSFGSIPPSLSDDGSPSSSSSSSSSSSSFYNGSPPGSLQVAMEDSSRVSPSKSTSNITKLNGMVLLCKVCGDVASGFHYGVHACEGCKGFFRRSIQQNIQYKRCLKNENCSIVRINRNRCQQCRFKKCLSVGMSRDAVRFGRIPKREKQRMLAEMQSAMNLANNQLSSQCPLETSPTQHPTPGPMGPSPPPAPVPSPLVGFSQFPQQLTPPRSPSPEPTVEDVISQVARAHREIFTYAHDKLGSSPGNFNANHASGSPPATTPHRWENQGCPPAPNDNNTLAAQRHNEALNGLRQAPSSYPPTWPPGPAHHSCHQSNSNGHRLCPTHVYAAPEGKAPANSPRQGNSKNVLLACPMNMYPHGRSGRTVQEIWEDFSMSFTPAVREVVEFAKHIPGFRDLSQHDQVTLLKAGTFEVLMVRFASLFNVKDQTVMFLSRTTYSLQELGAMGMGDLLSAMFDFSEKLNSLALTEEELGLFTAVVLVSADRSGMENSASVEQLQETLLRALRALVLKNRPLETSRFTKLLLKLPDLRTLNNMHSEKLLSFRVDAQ

IC50	Compound
> 40 µM (inactive)	Cc1ccc(-c2nn3c(C)nnc3s2)cc1NC(=O)c1ccc(-c2ccc(Cl)cc2Cl)o1
8.64 µM	Oc1c(C=Nc2cccc3cccnc23)sc2ccccc12
3.42 µM	COc1ccc2c(Cl)c(-c3nnc(SCC(=O)c4ccccc4)n3C)sc2c1
inactive	COc1ccc(N2C(=O)c3cccc4c(N(C)CCO)ccc(c34)C2=O)cc1
7.38 µM	C=CCOc1ccc(/C(O)=C2\C(=O)C(=O)N(CCN(C)C)C2c2cccs2)cc1 (centres undefined)
inactive	CC(=O)Oc1ccc(/C=N\NC(=O)c2cc3c(ccc4ccccc43)o2)cc1
4.52 µM	CCN(CC(=O)NCc1ccc(Cl)cc1)C(=O)c1ccc2cc(OC)ccc2c1
5.27 µM	O=C(OCC(=O)c1c[nH]c2ccccc12)c1cc(Br)ccc1O
inactive	CCOC(=O)Cn1c(=NC(=O)c2cccs2)sc2cc(C(=O)OC)ccc21
> 40 µM (inactive)	COc1ccc(C(=O)NC(=S)Nc2ccc3[nH]c(=O)[nH]c3c2)c(OC)c1
8.2 µM	COc1ccccc1N1C(=O)c2cccc3c(N(C)CCO)ccc(c23)C1=O
1.28 µM	COc1ccc(-n2nc(C(=O)NCC(=O)Nc3ccccn3)c3ccccc3c2=O)cc1Cl
inactive	C[n+]1ccc(/C=C/c2c[nH]c3ccccc23)cc1
> 40 µM (inactive)	O=C(COC(=O)c1sc2ccccc2c1Cl)Nc1ncc(Cl)cc1Cl
5.97 µM	Cc1c(Cl)ccc2c(C(N)=O)cc(-c3ccccn3)nc12
inactive	N#Cc1ccccc1Sc1ccccc1C(=O)OCC(=O)NC1CCCCC1
2.24 µM	Cn1c(SCC(=O)c2ccc3c(c2)Cc2ccccc2-3)nnc1-c1ccccc1
> 40 µM (inactive)	Cc1ccc(-c2nc3c(c(=O)c4ccccc4n3C)c(=O)n2-c2ccc(F)cc2)cc1
0.675 µM	COc1ccc(NC(=O)CSc2nc(-c3ccc(C)cc3)cc(C(F)(F)F)c2C#N)cc1
inactive	COCCN(Cc1cc2cc(C)ccc2n2nnnc12)C(=S)Nc1ccc(C)cc1
2.41 µM	N#Cc1c(N)nc(SCC(=O)NCc2ccc3c(c2)OCO3)c(C#N)c1-c1cccs1

IC50	Compound
> 40 µM (inactive)	CCn1c2ccccc2c2cc(C3C(C#N)=C(C)NC(C)=C3C#N)ccc21
5.84 µM	COc1cc2oc(=O)cc(-c3ccc(-c4ccc(CO)cc4)cc3)c2c(OC)c1OC
> 40 µM (inactive)	CCNc1ccc2noc3c2c1C(=O)c1ccccc1-3
> 40 µM (inactive)	COc1ccc(Cn2ccc3ccc(-c4ccc5ccn(C(=O)c6ccc(C)cc6)c5c4)cc32)cc1
1.84 µM	O=C(NCCc1ccccc1)c1ccc2c(c1)S(=O)(=O)c1cc(Cl)ccc1C2=O
inactive	COC(=O)c1ccc(Cn2ccc3ccc(-c4ccc5ccn(C(=O)c6cccc(OC)c6)c5c4)cc32)cc1
1.01 µM	COc1ccccc1NC(=O)COC(=O)c1ccc2c(c1)OCCO2
8.95 µM	Cc1cc(=O)oc2cc(OCC3CC(c4ccc(Cl)cc4)=NO3)ccc12 (centres undefined)
> 40 µM (inactive)	O=C(NCc1ccccc1)C(c1cc2ccccc2o1)n1c(=O)c(-c2ccccc2)nc2ccccc21 (centres undefined)
2.42 µM	COc1ccccc1CNc1ncnc2cc(Cl)ccc12
3.03 µM	O=C(Nc1ccc(O)c(-c2nc3ccccc3s2)c1)c1cccs1
inactive	Cn1nnnc1-c1cc(Br)ccc1NC(=O)c1ccccc1
2.96 µM	CCCCCc1nc2c(c(=O)c3ccccc3n2C)c(=O)n1Cc1ccc(OC)cc1
4.19 µM	COc1ccccc1N/C(N)=N/c1nc(CSc2ccc(C)cc2)cc(=O)[nH]1
2.38 µM	O=C(CSc1nc2ccccc2c(=O)n1-c1ccc(F)cc1)Nc1ccc(Cl)c(S(=O)(=O)N2CCOCC2)c1
6.52 µM	CCOc1ccccc1-c1nc(-c2ccc(NC(=O)Cc3ccc(OC)cc3)cc2)no1
inactive	CCOC(=O)c1ccc(CNC(=O)CSc2nc(NC(=O)c3ccccc3)c3c(C)c(C)oc3n2)cc1
8.37 µM	CCOc1ccc2nc(N/C(N)=N/C(=S)Nc3cccc(C)c3)nc(C)c2c1
9.38 µM	Cc1nc(SCc2nc3ccccc3[nH]2)c2oc3cc(Br)ccc3c2n1
2.43 µM	O=C(NCc1ccco1)c1ccc(Cn2c(=O)c3ccccc3n(Cc3cccc(F)c3)c2=O)cc1
> 40 µM (inactive)	COc1ccc2c(COC(=O)c3n[nH]c4ccccc34)cc(=O)oc2c1

IC50	Compound
inactive	Cc1cccc2cc(C#N)c(SCC(=O)Nc3ccccc3N3CCOCC3)nc12
inactive	CCc1cccc(NC(=O)c2ccc(Cn3c(=O)[nH]c4ccsc4c3=O)cc2)c1
1.65 µM	COc1ccc(/C=C/C(=O)NC(=S)N2CCN(c3ccccc3OC)CC2)cc1
2.63 µM	CCn1c(=NC(=O)c2ccc(N3C(=O)CCC3=O)cc2)sc2c(OC)ccc(OC)c21
5.32 µM	CCOc1ccc(NC(=O)CSc2nc(C3CC3)nc3ccccc23)cc1
> 40 µM (inactive)	CCOC(=O)c1cc2c(=O)c3ccccc3oc2nc1C
3.69 µM	O=C(NCc1cccc(F)c1)c1cccc2c1C(=O)c1ccc(N3CCOCC3)cc1S2(=O)=O
inactive	COc1cc(C=Cc2nnc3c4ccccc4cnn23)cc(OC)c1OC
inactive	COc1ccc(-c2nc3c4ccccc4ccn3c2C=O)cc1
inactive	Cc1ccc(NC(=O)CSc2nc3ccccc3nc2N2CCOCC2)c(C)c1
> 40 µM (inactive)	O=C(CSc1nc2ccccc2c(=O)n1-c1ccc(F)cc1)Nc1cc(S(=O)(=O)N2CCOCC2)ccc1Cl
inactive	COc1ccc(Br)cc1-c1nc2c(c(=O)[nH]c(=O)n2Cc2ccccc2)n1C
3.99 µM	C=CCOc1ccc(C2C(C(=O)c3cccs3)=C(O)C(=O)N2c2nnc(C)s2)cc1 (centres undefined)
1.02 µM	Cc1cc(=O)oc2cc(NC(=O)c3cccc(F)c3)ccc12
0.779 µM	COc1ccc(Oc2c(Cl)cnn(CC(=O)C(c3ccccc3)c3ccccc3)c2=O)cc1
> 40 µM (inactive)	COc1ccc(-c2c(C)nc(N)nc2-c2ccc(OCc3ccc(C)cc3)cc2O)cc1OC
0.378 µM	Cc1cc(-c2ccccc2)nc2oc3c(c12)NC(=O)CN(c1ccccc1)C3=O
> 40 µM (inactive)	CNC(=O)COc1ccccc1C(=O)Nc1ccc2c(c1)oc1ccccc12
4.36 µM	COc1ccccc1NC(=O)c1cnc(SCC(=O)NCCc2ccccc2)n(C)c1=O

Continued, molecule first:

Compound	IC50
O=C(OCC(=O)N1CCN(S(=O)(=O)c2ccc(Cl)cc2)CC1)c1cc(Br)ccc1O	2.22 µM
COc1ccc(NC(=O)c2sc3nc(N4CCCC4)c4c(c3c2N)CC(C)(C)OC4)c(OC)c1	> 40 µM (inactive)
Cc1cc2c(s1)c1cnn(Cc3c(Cl)ccc(C)c3F)c(=O)c1n2C	inactive
CCN(c1ccccc1C)S(=O)(=O)c1cc2c3c(c1)CCC(=O)N3CCC2	> 40 µM (inactive)
c1cnc(SCC2CCCCC2)c(-c2nc3ccccc3[nH]2)c1	7.2 µM
Nc1ccc2cc3ccc(N)cc3nc2c1	> 40 µM (inactive)
CCOC(=O)c1sc(NC(=O)c2ccc(S(=O)(=O)N(C)C)cc2)nc1C	inactive
COc1cc(/C=N/NC(=O)c2c(C)nc3ccc(Cl)cn23)cc(OC)c1OC	> 40 µM (inactive)
CC(=O)c1ccc(Nc2ncnc3ccc(Br)cc23)cc1	inactive
C=CCn1cc(/C=C/c2cc[n+](C)cc2)c2ccccc21	> 40 µM (inactive)
Cc1cc(NC(=O)CSc2nc3c(C)ccc(C)c3cc2C#N)no1	3.19 µM
O=[N+]([O-])c1ccc(-c2nc(-c3cccs3)c(-c3cccs3)[nH]2)cc1	inactive
CN(C)c1ccc2nc3c(=O)[nH]c(=O)nc-3n(CC(O)C(O)C(O)CO)c2c1 (centres undefined)	0.801 µM
CCN1C(=O)CSC1=NC1C2CC3CC(C2)CC1C3 (centres undefined)	4.66 µM
N#Cc1c(N)nc2c3c(sc(=N)c2c1N)NC(=O)CC3c1ccccc1 (centres undefined)	> 40 µM (inactive)
Cc1cccc2cc(C#N)c(NCCNC(=O)NC3CCCCC3)nc12	inactive
Cc1cc(-c2nnc3sc(-c4ccc(Cl)cc4Cl)nn23)n[nH]1	> 40 µM (inactive)
O=C1NC(=O)c2c(Br)c(Br)c(Br)c(Br)c21	1.48 µM
CCc1cc2cc3c(cc2nc1SCC(=O)Nc1c[nH]c(=O)[nH]c1=O)OCO3	2.22 µM
O=C(N=c1ccn(-c2nc3ccccc3nc2NS(=O)(=O)c2ccccc2)cc1)c1cccs1	inactive
Cc1cc2cc(C#N)c(SCC(=O)Nc3nonc3C)nc2cc1C	1.33 µM
CN(C)c1ccc(/C=C/c2cc[n+](C)cc2)cc1	3.47 µM

Compound	IC50
COc1ccc(/C=C2\SC(=S)N(CCCC(=O)NC3CCCC3)C2=O)cc1OC	> 40 µM (inactive)
CS(=O)(=O)Nc1ccc(-c2ccc(/C=C3\SC(N)=NC3=O)o2)cc1	8.42 µM
Cc1cc(C)c2nc(SCC(=O)N(C)C3CCS(=O)(=O)C3)cc(C)c2c1 (centres undefined)	6.34 µM
Cc1nn2c(N)c(C#N)cnc2c1-c1ccc(Cl)cc1	6.12 µM
CCCCc1nc2sc3c(SCCN(C)C)ncnc3c2c2c1CCC2	7.04 µM
Cc1nonc1NC(=O)CSc1nc2c(C)cccc2cc1C#N	> 40 µM (inactive)
Oc1ccc(Br)cc1C1Nc2ccccc2S1 (centres undefined)	6.22 µM
Cc1ccc2c3c(c(SCC(=O)Nc4nonc4C)nc2c1)CCCC3	> 40 µM (inactive)
c1ccc(N(c2ccccc2)c2nc(N3CCCC3)nc(-n3ccnc3)n2)cc1	1.14 µM
CCCCN1C(=O)/C(=C/C=C2\Oc3ccccc3N2CC)SC1=S	4.41 µM
Cc1cc(C(C)c2ccccc2)c(O)c(CN2CCOCC2)c1C (centres undefined)	inactive
O=C(NCc1ccco1)c1ccc(Cn2c(=O)c3sccc3n(Cc3cccc(F)c3)c2=O)cc1	> 40 µM (inactive)
CN1CCS/C1=C/C=C1\SC(=S)N(CC(=O)O)C1=O	1.12 µM
COc1ccc(Cl)cc1NC(=O)c1[nH]c(C)c(C(C)=O)c1C	6.1 µM
Cc1nc2ccc3nc(NC(=O)c4ccc5c(c4)OCCO5)sc3c2s1	9.57 µM
CCCCN(C)C1=CC2=CC(=C(C#N)C#N)CCC2CC1 (centres undefined)	> 40 µM (inactive)
CN1C(=O)N(C)c2ccc(Br)c3cccc1c23	> 40 µM (inactive)
COCCn1c(=NC(=O)c2ccc3c(c2)OCCO3)sc2cc(S(N)(=O)=O)ccc21	4.94 µM
N#Cc1cnc2cc(-c3ccccc3)nn2c1N	3.52 µM
CCOC(=O)c1c(C2CC2)csc1NC(=O)COC(=O)c1cnc(Cl)c(Cl)c1	inactive
C=CCSc1nc(N)c(C#N)c(-c2ccccc2)c1C#N	inactive
